Data on six compounds can be found in article PMC3485633 (BMC Pharmacology, 2012).

The term Ki denotes the equilibrium dissociation constant of an inhibitor or competing ligand from its target.

Data set [1] deals with T1, D2 receptor (Rattus norvegicus, UniProt P61169).
T1 construct: The prefrontal cortex, striatum and hypothalamus were homogenized in about 6 volumes of ice-cold buffer; from tissue; host or cells: rat striatum membrane homogenate
The data set is described as follows: [3H]-Spiperone radioligand binding assay, rat striatum membrane homogenate. Further details: species or system Sprague Dawley rats. The conditions noted are these: read-out: Ki ± SD D2.

For data set [2], the target named is T2, 5HT2A receptor (Rattus norvegicus, UniProt P14842).
T2 construct: The prefrontal cortex, striatum and hypothalamus were homogenized in about 6 volumes of ice-cold buffer; from tissue; host or cells: rat prefrontal cortex membrane homogenate
T2 sequence (P14842 whole entry): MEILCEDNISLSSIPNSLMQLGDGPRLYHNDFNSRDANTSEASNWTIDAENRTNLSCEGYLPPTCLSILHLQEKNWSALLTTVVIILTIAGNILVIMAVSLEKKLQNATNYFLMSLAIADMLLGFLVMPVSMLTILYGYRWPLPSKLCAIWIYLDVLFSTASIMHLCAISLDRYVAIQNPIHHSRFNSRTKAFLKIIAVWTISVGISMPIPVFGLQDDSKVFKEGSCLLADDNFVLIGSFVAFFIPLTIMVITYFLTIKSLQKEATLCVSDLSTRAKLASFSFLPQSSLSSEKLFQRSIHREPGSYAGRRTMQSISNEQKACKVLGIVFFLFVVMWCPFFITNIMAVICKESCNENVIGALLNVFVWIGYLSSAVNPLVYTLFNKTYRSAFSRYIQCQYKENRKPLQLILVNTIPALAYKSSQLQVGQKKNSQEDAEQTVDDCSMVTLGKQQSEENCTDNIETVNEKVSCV
The data set is described as follows: [3H]-Ketanserine radioligand binding assay, rat prefrontal cortex membrane homogenate. Further details: species or system Sprague Dawley rats. The conditions noted are these: for Ki: read-out: Ki ± SD 5HT2A; for pKi ratio 5HT2A/D2: ratio of pKi at 5HT2A to pKi at D2, rat tissue homogenate.

Data set [3] addresses T3, H1 receptor (Rattus norvegicus, UniProt P31390).
T3 construct: The prefrontal cortex, striatum and hypothalamus were homogenized in about 6 volumes of ice-cold buffer; from tissue; host or cells: rat hypothalamus membrane homogenate
As to the kind of experiment: [3H]-Pyrilamine radioligand binding assay, rat hypothalamus membrane homogenate. Further details: species or system Sprague Dawley rats. As to conditions: read-out: Ki ± SD H1.

Details of data set [4]: method as in PMID 11488257, PMID 22103329. As to conditions: patients treated with these medications; cited from earlier work.
In data set [5] the target is D2 receptor. The conditions noted are these: read-out: Ki D2 receptor; cited from earlier work.

T3 sequence (P31390 whole entry): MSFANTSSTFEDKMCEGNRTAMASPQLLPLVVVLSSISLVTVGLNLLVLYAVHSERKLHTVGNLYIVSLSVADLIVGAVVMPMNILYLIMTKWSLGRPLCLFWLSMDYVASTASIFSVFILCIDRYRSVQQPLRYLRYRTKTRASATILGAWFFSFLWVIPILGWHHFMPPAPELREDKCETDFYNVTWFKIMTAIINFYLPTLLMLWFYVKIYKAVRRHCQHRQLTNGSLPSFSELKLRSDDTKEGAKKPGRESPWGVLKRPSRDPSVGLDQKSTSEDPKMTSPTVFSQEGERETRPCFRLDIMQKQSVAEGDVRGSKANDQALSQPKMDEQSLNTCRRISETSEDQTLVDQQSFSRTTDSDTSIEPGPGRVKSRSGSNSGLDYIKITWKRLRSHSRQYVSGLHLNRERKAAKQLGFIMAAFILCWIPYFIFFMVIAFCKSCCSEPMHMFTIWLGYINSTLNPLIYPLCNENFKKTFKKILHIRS
T1 sequence (P61169 whole entry): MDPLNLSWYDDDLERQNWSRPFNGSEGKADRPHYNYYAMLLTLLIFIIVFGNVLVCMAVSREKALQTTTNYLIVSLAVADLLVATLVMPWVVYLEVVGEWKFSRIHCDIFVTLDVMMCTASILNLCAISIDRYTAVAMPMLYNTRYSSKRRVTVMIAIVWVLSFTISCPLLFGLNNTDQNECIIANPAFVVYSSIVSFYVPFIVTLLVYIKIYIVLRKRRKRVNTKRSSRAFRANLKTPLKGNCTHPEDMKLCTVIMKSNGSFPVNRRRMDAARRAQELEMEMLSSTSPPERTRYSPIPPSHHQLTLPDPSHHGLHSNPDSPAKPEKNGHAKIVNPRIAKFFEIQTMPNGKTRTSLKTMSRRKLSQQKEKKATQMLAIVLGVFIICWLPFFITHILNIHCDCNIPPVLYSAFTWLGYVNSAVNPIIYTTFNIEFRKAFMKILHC

For the compound `Cc1cc2c(s1)Nc1ccccc1N=C2N1CCCN(C)CC1` [Compound 8a, 2-methyl-4-(4′-methyl-1′,4′-diazepan-1′-yl)-10H-benzo[b]thieno[2,3-e] [1,4]diazepine], the Ki worked out at 3940 ± 437 nM in data set [1], 787 ± 29.8 nM in data set [2] and 33.5 ± 7.39 nM in data set [3].
On to `CCc1cc2c(s1)Nc1ccccc1N=C2N1CCCN(C)CC1` [Compound 8b, 2-ethyl-4-(4′-methyl-1′,4′-diazepan-1′-yl)-10H-benzo[b]thieno[2,3-e] [1,4]diazepine], for which the Ki in data set [1] was 791 ± 83.2 nM; in data set [2], 81.2 ± 2.43 nM; in data set [3], 13.6 ± 2.68 nM. Also, the “pKi ratio 5HT2A/D2” value in data set [2] amounted to 1.16.
Take `CCc1cc2c(s1)Nc1ccccc1N=C2N1CCN(C)CC1` [Compound 8c, 2-ethyl-4-(4′-methylpiperazin-1′-yl)-10Hbenzo[b]thieno[2,3-e][1,4]diazepine]: the values for the Ki in data set [1], in data set [2] and in data set [3] were 54.5 ± 12.1 nM, 3.7 ± 0.74 nM and 1.95 ± 0.33 nM, respectively. Also, the “pKi ratio 5HT2A/D2” value in data set [2] is 1.16.
`Clc1ccc2c(c1)C(N1CCNCC1)=Nc1ccccc1O2` [amoxapine]: in data set [4], the “weight change in treated patients” value is “neither weight gain nor weight loss”.
`CN1CCN(C2=Nc3ccccc3Oc3ccc(Cl)cc32)CC1` [loxapine]: in data set [4], the “weight change in treated patients” value is given as “neither weight gain nor weight loss”.
Take `CCN1CCC[C@H]1CNC(=O)c1c(OC)ccc(Br)c1OC` [remoxipride]: the Ki in data set [5] was 800 nM.
